Test results: the OligoGym collection
Where “and” joins values, the source holds several entries; their conditions need not be identical. Equal entries are not always repeated. After the bases stand the sugars from the 5' end (letter, count) and the backbone: PS all phosphorothioate, else s phosphorothioate and o phosphodiester by linkage. Methylation of C is not given here. e = 2'-O-(2-methoxyethyl) (MOE); k = constrained ethyl (cEt); d = 2'-deoxy (DNA)

Molecular target: IRF4
Conditions: ASO, MM.1R, 0.0625 µM

Sequence | target mRNA inhibition [%]
GTGTGCTTGCCAAGCC (sugars k3 d10 k3, PS) | 35

Same assay, conditions: ASO, MM.1R, 0.25 µM

Sequence | target mRNA inhibition [%]
GTGTGCTTGCCAAGCC (sugars k3 d10 k3, PS) | 23

Same assay, conditions: ASO, MM.1R, 1 µM

Sequence | target mRNA inhibition
TGTGCTTGCCAAGCCT (sugars k2 d9 e3 k2, PS) | 45% and 40%
GTGTGCTTGCCAAGCC (sugars k3 d10 k3, PS) | 66% and 63%
GGCTCCGCTCAACCAG (sugars k3 d10 k3, PS) | 9%
GGTATTTATAACCGGT (sugars k3 d10 k3, PS) | 10%
TCCTCCACTACCATAT (sugars k3 d10 k3, PS) | -13%
TACAGGACAGGTAAAG (sugars k3 d10 k3, PS) | -29%
TCTTTAAAATATCGCC (sugars k3 d10 k3, PS) | -45%
TTATATACTGGTTGGT (sugars kdddddddddkekeke, PS) | 20%
ATCACCGAACACACCA (sugars k3 d10 k3, PS) | -12%

Same assay, conditions: ASO, MM.1R, 4 µM

Sequence | target mRNA inhibition [%]
GTGTGCTTGCCAAGCC (sugars k3 d10 k3, PS) | 87

Same assay, conditions: ASO, SK-MEL-28, 0.185 µM

Sequence | target mRNA inhibition [%]
GCATTTTCCAGAAAAT (sugars k3 d10 k3, PS) | 13

Same assay, conditions: ASO, SK-MEL-28, 4 µM

Sequence | target mRNA inhibition [%]
CAAAGCATAGAGTCAC (sugars k3 d10 k3, PS) | 36
CCTGGCGGCCTCCACG (sugars k3 d10 k3, PS) | -31
GCTCACAGATTAATAG (sugars k3 d10 k3, PS) | 16
TCTTTGGGATTCTATA (sugars k3 d10 k3, PS) | 60
CACAGAGGACTTCGGG (sugars k3 d10 k3, PS) | 49
TGGGTACATGGCAGTG (sugars k3 d10 k3, PS) | 74
AGCTCCTACATACATT (sugars k3 d10 k3, PS) | 44
TGTAAATGAGTCGGTC (sugars k3 d10 k3, PS) | 69
TCTAATAAATGTGCTC (sugars k3 d10 k3, PS) | 44
AGCCGCTACAGCTTCT (sugars k3 d10 k3, PS) | -8
ACACATCACTTGGTCA (sugars k3 d10 k3, PS) | 78
CCTGGGAGTAATAGTA (sugars k3 d10 k3, PS) | 53
CTCCATTCAAGCCAGT (sugars k3 d10 k3, PS) | 58
TTAGAGAGGAGAATTT (sugars k3 d10 k3, PS) | 35
GCATAAAAGGTTCCTG (sugars k3 d10 k3, PS) | 26
GCTCACTATTAAACAG (sugars k3 d10 k3, PS) | -12
GTTTACTAACTGGCTT (sugars k3 d10 k3, PS) | 27
ATATCCTGTAGTATGA (sugars k3 d10 k3, PS) | 57
TCTGACAAGAACTGCT (sugars k3 d10 k3, PS) | 12
TTTAAGGCCCTGTCAA (sugars k3 d10 k3, PS) | -17
CCCCGGAAGAAGGCAC (sugars k3 d10 k3, PS) | 36
GCATTTTCCAGAAAAT (sugars k3 d10 k3, PS) | 64
GCTACATTTCTTATGC (sugars k3 d10 k3, PS) | 20

Same assay, conditions: ASO, SK-MEL-28, 5 µM

Sequence | target mRNA inhibition [%]
GCATTTTCCAGAAAAT (sugars k3 d10 k3, PS) | 74

Same assay, conditions: ASO, SK-MEL-28, 15 µM

Sequence | target mRNA inhibition [%]
GCATTTTCCAGAAAAT (sugars k3 d10 k3, PS) | 89

Molecular target: MALAT1
Conditions: ASO, A431, 0.005 µM

Sequence | target mRNA inhibition
TTTAATCATACTCCAG (sugars k3 d10 k3, PS) | 24%
AGCTGTTTAAGTCACC (sugars k3 d10 k3, PS) | 62% and 57%
GCCCCCCAGTTGCCGC (sugars k3 d10 k3, PS) | -35%
CAATCCTGAAATCCCC (sugars k3 d10 k3, PS) | 16%
TAAGATTGTAAGCATT (sugars k3 d10 k3, PS) | 23%
GGGATTTGAACCCCGT (sugars k3 d10 k3, PS) | -1%
AAGACCTCGACACCAT (sugars k3 d10 k3, PS) | 44%
CACGGATTTTTACCAA (sugars k3 d10 k3, PS) | 19%
GTCAATTTATAGACCC (sugars k3 d10 k3, PS) | 18%
GAAAGTGCCATGGTTG (sugars k3 d10 k3, PS) | 41%
CGTGAGAACTGCTCTA (sugars k3 d10 k3, PS) | 37%
AGTCTACAAGTTACAT (sugars k3 d10 k3, PS) | 3%
GAAACCTACAACACCC (sugars k3 d10 k3, PS) | 20%
GAATTACTTCCGTTAC (sugars k3 d10 k3, PS) | 36%
ACCGCTTGAGATTTGG (sugars k3 d10 k3, PS) | 32% and 41%
AGCTGAACTATCACAA (sugars k3 d10 k3, PS) | 5%
ACCGGAATTCGATCAC (sugars k3 d10 k3, PS) | 35%
ATCACAAATACGACTG (sugars k3 d10 k3, PS) | 34%
CCCCACGGCCCGCACG (sugars k3 d10 k3, PS) | -9%
TTCGATCACCTTCCGC (sugars k3 d10 k3, PS) | 12%
AGCCTTCAGAGATTCA (sugars k3 d10 k3, PS) | 75% and 91%
CCCACCCTCTAAGAGA (sugars k3 d10 k3, PS) | -4%
ACTTACTGGTTTAAGT (sugars k3 d10 k3, PS) | -3%
GCCTTGCAGGGACGGT (sugars k3 d10 k3, PS) | -10%
ACTCAGCCTTTATCAC (sugars k3 d10 k3, PS) | -5%
GAAGAGCCAAGCACTC (sugars k3 d10 k3, PS) | -9%

Sequence | target mRNA inhibition
CAAGGCAAATCGCCAT (sugars k3 d10 k3, PS) | 42%
GCCAAGCCAAGCCGCC (sugars k3 d10 k3, PS) | 14%
ATCCCTAACATGCAAT (sugars k3 d10 k3, PS) | 23%
CCCGCCTGAGCCCCGG (sugars k3 d10 k3, PS) | -2%
ACCAAATTGCACTCGC (sugars k3 d10 k3, PS) | 40%
CGCTTTGTTGTCTCTC (sugars k3 d10 k3, PS) | 87% and 99%
GTTAAGACCATCCCAA (sugars k3 d10 k3, PS) | 19%
CCCTCCCCTTTAATAA (sugars k3 d10 k3, PS) | -17%
GAACCGGAGCAGGAAG (sugars k3 d10 k3, PS) | 28%
AAGATCGCCTTCAAAT (sugars k3 d10 k3, PS) | 49%
ACCTTGAGTCATTTGC (sugars k3 d10 k3, PS) | 66%
GAGAAGAATCCCCCCC (sugars k3 d10 k3, PS) | 17%
CCCCAGTCCTTTACAG (sugars k3 d10 k3, PS) | 9%
ATCAAGTCAAGCTCCT (sugars k3 d10 k3, PS) | 11%
ACAGTAGGTATAGTTT (sugars k3 d10 k3, PS) | 24%
TTCTATAGTCTGAAGA (sugars k3 d10 k3, PS) | 14%
GCAGGGACGGTTGAGA (sugars k3 d10 k3, PS) | 8%
CCTCTAAGAGACATTC (sugars k3 d10 k3, PS) | 29%
CTAAATACCACCACCT (sugars k3 d10 k3, PS) | 12%
TTGGCACACTGGCATG (sugars k3 d10 k3, PS) | 24%
GCGGGATCAGAACAGT (sugars k3 d10 k3, PS) | 40%
CTTTATCACTCAGCTG (sugars k3 d10 k3, PS) | 37%
CAATCCCAACCGTAAC (sugars k3 d10 k3, PS) | 9%
GCACTCATATGCAATT (sugars k3 d10 k3, PS) | 6%
TTCAAGCACCGCTTGA (sugars k3 d10 k3, PS) | 12% and 25%
CTAAGATAGCAGCACA (sugars k3 d10 k3, PS) | 11%

Sequence | target mRNA inhibition
CGAACTGCTGCTTGCT (sugars k3 d10 k3, PS) | 40%
CGTAACAGGCCACTGC (sugars k3 d10 k3, PS) | 2%
CTTTCATAGAGCCTTC (sugars k3 d10 k3, PS) | 43%
ATACCCTTCTGTTAAC (sugars k3 d10 k3, PS) | 2%
CCCAAATTAATGCACT (sugars k3 d10 k3, PS) | 51% and 42%
CCAACTTGGAAGTTGA (sugars k3 d10 k3, PS) | 31%
GTCCCTGAAGGTGTTC (sugars k3 d10 k3, PS) | 23%
GGAGATCAGCTTCCGC (sugars k3 d10 k3, PS) | -7%
TGAGTGAAGTGTACTA (sugars k3 d10 k3, PS) | 42%
CTCGCTTTCCCTGTGG (sugars k3 d10 k3, PS) | 17%
AATAGTACTATAGCAT (sugars k3 d10 k3, PS) | 15%
GTGCCTGGAATTATTA (sugars k3 d10 k3, PS) | 39%
GGTTAAGCACTTTTAA (sugars k3 d10 k3, PS) | 38%
TTACAGTTCTTGAACA (sugars k3 d10 k3, PS) | 25%
CACGAACTGCTGCTTG (sugars k3 d10 k3, PS) | 55%
ATATTTGCCCCTCCCC (sugars k3 d10 k3, PS) | 27%
TTCAAACTAAGCTACT (sugars k3 d10 k3, PS) | 31%
ATACAAACTGCTTACA (sugars k3 d10 k3, PS) | -30%
AACATATTTTGCCCCC (sugars k3 d10 k3, PS) | 22%
CCCCCCCAAGATTGCC (sugars k3 d10 k3, PS) | -16%
GGCTATTACCTGAAAA (sugars k3 d10 k3, PS) | 6%
GCCTATCTTCTCCAGT (sugars k3 d10 k3, PS) | 27%
TGCTCCTCAGTCCTAG (sugars k3 d10 k3, PS) | 26%
AGATTGTAAGCATTTA (sugars k3 d10 k3, PS) | 42%
TTATTTAGAGGGCCTC (sugars k3 d10 k3, PS) | 57% and 72%
